Source: patent US20240092761A1, “QUINAZOLINE COMPOUNDS AND METHODS OF USE” (IAMBIC THERAPEUTICS, INC., priority 2022, published 2024)
Read-outs that look alike come from different tables or passages of the source.

Columns and labels:
[1] = molecular target: CDK2/Cyclin E1 full length (Homo sapiens (Human), UniProt P24941); test: CDK2/Cyclin E1 Full Length ADP-Glo Kinase Assay; assay type: biochemical; settings: 20 uM ATP, read-out: CDK2/ CyclinE1 IC50
Outline: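 Full-length human CDK2/Cyclin E1 (0.328 nM) pre-incubated 30 min with inhibitor at RT, then reacted 90 min at RT with 20 uM ATP (Km 64.78 uM) and 0.75 uM substrate in pH 7.5 HEPES, 2% DMSO. ADP measured by ADP-Glo luminescence; IC50 from 4-parameter fit of fractional velocity.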

[2] = system: MCF-7 cells; test: Cell Growth Inhibition, MCF-7 (CellTiterGlo, 6 days); assay type: cell-based; settings: Homo sapiens, MCF7, 144 h; MCF-7, 6-day treatment, CellTiterGlo 2.0
Outline: (§1)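 MCF-7 and OVCAR-3 cells (RPMI, 10% FBS) were seeded at 500 cells/well onto compound, typically 10–10,000 nM in half-log dilutions. Growth proceeded 6 days at 37 °C, then CellTiterGlo luminescence was read. % inhibition was taken versus control, and IC50 came from a four-parameter variable-slope fit.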

[3] = molecular target: CDK4/Cyclin D1 (Homo sapiens (Human), UniProt P11802); test: CDK4/Cyclin D1 Mobility Shift Assay (MSA); assay type: biochemical; settings: 0.2 mM ATP, read-out: CDK4/ CyclinD1 MSA IC50
Chain of CDK4/Cyclin D1 (P11802 whole entry): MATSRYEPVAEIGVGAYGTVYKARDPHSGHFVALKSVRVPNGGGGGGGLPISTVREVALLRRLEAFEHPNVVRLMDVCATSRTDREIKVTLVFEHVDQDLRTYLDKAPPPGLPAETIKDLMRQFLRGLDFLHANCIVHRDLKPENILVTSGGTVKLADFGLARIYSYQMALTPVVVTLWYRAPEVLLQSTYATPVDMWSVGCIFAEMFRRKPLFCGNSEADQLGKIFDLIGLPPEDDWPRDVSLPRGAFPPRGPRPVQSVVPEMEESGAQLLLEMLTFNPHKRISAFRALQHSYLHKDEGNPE
Chain of CDK4/Cyclin D1 (P24385 whole entry partner): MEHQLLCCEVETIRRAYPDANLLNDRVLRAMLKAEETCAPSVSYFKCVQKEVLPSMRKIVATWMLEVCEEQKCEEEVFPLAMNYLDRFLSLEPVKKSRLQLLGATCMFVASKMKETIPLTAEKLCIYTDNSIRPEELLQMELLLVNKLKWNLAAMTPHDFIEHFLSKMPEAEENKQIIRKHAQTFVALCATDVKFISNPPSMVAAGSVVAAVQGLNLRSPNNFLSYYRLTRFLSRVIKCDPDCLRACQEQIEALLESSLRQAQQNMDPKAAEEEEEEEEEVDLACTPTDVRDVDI
From the text: CDK4/Cyclin D1 Mobility Shift Assay (MSA)
The purpose CDK4/Cyclin D1 assay is to evaluate the inhibition (% inhibition and IC50 values) in the presence of small molecule inhibitors by using a fluorescence based microfluidic mobility shift assay. CDK4/Cyclin D1 catalyzes the production of ADP from ATP that accompanies the phosphoryl transfer to the substrate peptide 5-FAM-Dyrktide (5-FAM-RRRFRPASPLRGPPK) (Perkin Elmer Peptide 34). The mobility shift assay (MSA) electrophoretically separates the fluorescently labelled peptides (substrate and phosphorylated product) following the kinase reaction. Both substrate and product are measured, and the ratio of these values is used to generate % conversion of substrate to product by the LabChip EZ Reader. Typical reaction solutions contained 2% DMSO (+/−inhibitor), 10 mM MgCl2, 1 mM EGTA, 0.05% BSA, 2 mM DTT, 0.2 mM ATP, 0.01% Brig-35, 1.5 uM 5-FAM-Dyrktide, 2.5 nM CDK4/Cyclin D1 in 50 mM HEPES buffer at pH 7.5. The reaction was initiated with the addition of substrate solution, following a 30-minute pre-incubation of enzyme and inhibitor at 22° C. in the reaction mix. The reaction was stopped after 180 minutes by the addition of 75 uL of 500 mM EDTA and measured on a Perkin Elmer EZ reader instrument. IC50 determinations were made from a plot of the fractional velocity as a function of inhibitor concentration fit to the 4 parameters IC50 equation.

[4] = molecular target: CDK6/Cyclin D3 (Homo sapiens (Human), UniProt Q00534); test: CDK6/Cyclin D3 ADP-Glo Kinase Assay; assay type: biochemical; settings: 100 uM ATP, read-out: CDK6/ CyclinD3 IC50
Chain of CDK6/Cyclin D3 (Q00534 whole entry): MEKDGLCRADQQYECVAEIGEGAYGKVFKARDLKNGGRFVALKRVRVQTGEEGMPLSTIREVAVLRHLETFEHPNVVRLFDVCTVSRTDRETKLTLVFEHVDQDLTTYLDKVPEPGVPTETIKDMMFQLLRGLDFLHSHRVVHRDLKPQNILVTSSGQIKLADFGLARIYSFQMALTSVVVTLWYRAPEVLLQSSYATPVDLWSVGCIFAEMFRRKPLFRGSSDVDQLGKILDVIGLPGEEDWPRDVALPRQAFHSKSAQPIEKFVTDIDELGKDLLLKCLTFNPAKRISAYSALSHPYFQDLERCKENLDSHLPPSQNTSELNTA
Chain of CDK6/Cyclin D3 (P30281 whole entry partner): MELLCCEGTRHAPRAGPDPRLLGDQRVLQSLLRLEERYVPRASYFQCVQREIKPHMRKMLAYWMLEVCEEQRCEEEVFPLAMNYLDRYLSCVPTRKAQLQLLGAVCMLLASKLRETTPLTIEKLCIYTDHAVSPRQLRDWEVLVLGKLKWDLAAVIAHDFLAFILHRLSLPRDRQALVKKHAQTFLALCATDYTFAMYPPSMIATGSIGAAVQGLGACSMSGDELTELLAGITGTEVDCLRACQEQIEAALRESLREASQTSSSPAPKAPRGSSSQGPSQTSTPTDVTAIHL
Outline: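 Recombinant human CDK6/Cyclin D3 pre-incubated 30 min with inhibitor at room temperature, then reaction started with ATP/substrate and run 90 min at room temperature. ADP formed detected by ADP-Glo luminescence; IC50 from a 4-parameter fit of fractional velocity versus inhibitor concentration.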

[5] = system: OVCAR-3 cells; test: Cell Growth Inhibition, OVCAR-3 (CellTiterGlo, 6 days); assay type: cell-based; settings: Homo sapiens, 144 h; OVCAR-3, 6-day treatment, CellTiterGlo 2.0
Outline: as §1

[6] = molecular target: CDK1/Cyclin B1 (Homo sapiens (Human), UniProt P06493); test: CDK1/Cyclin B1 ADP-Glo Kinase Assay; assay type: biochemical; settings: 80 uM ATP
Chain of CDK1/Cyclin B1 (P06493 whole entry): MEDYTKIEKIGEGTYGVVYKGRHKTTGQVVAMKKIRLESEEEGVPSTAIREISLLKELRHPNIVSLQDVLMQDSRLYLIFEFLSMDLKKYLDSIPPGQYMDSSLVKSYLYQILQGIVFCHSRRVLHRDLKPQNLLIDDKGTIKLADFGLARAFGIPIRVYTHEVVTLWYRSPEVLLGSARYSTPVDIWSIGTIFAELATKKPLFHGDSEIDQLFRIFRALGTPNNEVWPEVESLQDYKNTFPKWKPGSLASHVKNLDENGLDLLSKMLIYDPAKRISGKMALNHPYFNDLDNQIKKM
Chain of CDK1/Cyclin B1 (P14635 whole entry partner): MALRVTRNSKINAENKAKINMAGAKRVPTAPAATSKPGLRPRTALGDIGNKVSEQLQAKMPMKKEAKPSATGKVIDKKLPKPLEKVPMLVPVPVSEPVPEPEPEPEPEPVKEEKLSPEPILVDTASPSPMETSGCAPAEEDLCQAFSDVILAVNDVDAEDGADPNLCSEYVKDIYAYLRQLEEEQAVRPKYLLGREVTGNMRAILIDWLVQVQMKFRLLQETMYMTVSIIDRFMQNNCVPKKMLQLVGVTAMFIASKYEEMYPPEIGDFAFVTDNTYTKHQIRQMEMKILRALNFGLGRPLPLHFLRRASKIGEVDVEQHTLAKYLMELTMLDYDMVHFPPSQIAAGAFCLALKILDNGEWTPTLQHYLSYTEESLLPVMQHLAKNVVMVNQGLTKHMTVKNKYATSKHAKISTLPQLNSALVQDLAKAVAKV
Outline: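 CDK1/cyclin B1 (4.917 nM) preincubated 30 min with inhibitor (2% DMSO), then 80 µM ATP (Km 78.6 µM) and 0.75 µM substrate added; 90 min, room temperature, pH 7.5. ADP measured by ADP-Glo luminescence; IC50 from 4-parameter fit.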

| IC50 [1] [nM] | IC50 [2] [nM] | IC50 [3] [nM] | IC50 [4] [nM] | IC50 [5] [nM] | IC50 [6] [nM] | IC50 ([1]; given as number) [nM] | Compound |
| --- | --- | --- | --- | --- | --- | --- | --- |
| < 200 | 500 to 2000 | < 200 | < 200 | > 2000 | 500 to 2000 |  | CS(=O)(=O)N1CCC(Nc2ncc3cccc(N4CCC5(C4)CS(=O)(=O)C5)c3n2)CC1 [Example 4, 6-(2-((1-(methylsulfonyl)piperidin-4-yl)amino)quinazolin-8-yl)-2-thia-6-azaspiro[3.4]octane 2,2-dioxide] |
| < 200 | > 2000 | < 200 | < 200 | > 2000 | > 2000 |  | CC(=O)N1CCC2(CCN(c3cccc4cnc(NC5CCN(S(C)(=O)=O)CC5)nc34)C2)C1 (stereo not shown) [Example 6, 1-(7-(2-((1-(methylsulfonyl)piperidin-4-yl)amino)quinazolin-8-yl)-2,7-diazaspiro[4.4]nonan-2-yl)ethan-1-one] |
| < 200 | > 2000 | < 200 | < 200 | > 2000 | 200 to 500 |  | CS(=O)(=O)N1CCC(Nc2ncc3cccc(N4CC(CC#N)C4)c3n2)CC1 [Example 14, 2-(1-(2-((1-(methylsulfonyl)piperidin-4-yl)amino)quinazolin-8-yl)azetidin-3-yl)acetonitrile] |
| < 200 | 200 to 500 | < 200 | 200 to 500 | 500 to 2000 | 200 to 500 |  | CS(=O)(=O)N1CCC(Nc2ncc3cccc(N4CCC5(CNC5)C4)c3n2)CC1 [Example 15, N-(1-(methylsulfonyl)piperidin-4-yl)-8-(2,6-diazaspiro[3.4]octan-6-yl)quinazolin-2-amine] |
| < 200 | 500 to 2000 | < 200 | < 200 | 500 to 2000 | < 200 |  | CS(=O)(=O)N1CCC(Nc2ncc3cccc(N4CC5(CC(O)C5)C4)c3n2)CC1 [Example 18, 2-(2-((1-(methylsulfonyl)piperidin-4-yl)amino)quinazolin-8-yl)-2-azaspiro[3.3]heptan-6-ol] |
| < 200 | 500 to 2000 | < 200 | < 200 | 500 to 2000 | 200 to 500 |  | CN1CC2(CCN(c3cccc4cnc(NC5CCN(S(C)(=O)=O)CC5)nc34)C2)C1 [Example 24, 8-(2-methyl-2,6-diazaspiro[3.4]octan-6-yl)-N-(1-(methylsulfonyl)piperidin-4-yl)quinazolin-2-amine] |
| < 200 | > 2000 | < 200 | < 200 | > 2000 | 500 to 2000 |  | CS(=O)(=O)N1CCC(Nc2ncc3cccc(N4CCC(C#N)(C5CC5)C4)c3n2)CC1 (stereo not shown) [Example 27, 3-cyclopropyl-1-(2-((1-(methylsulfonyl)piperidin-4-yl)amino)quinazolin-8-yl)pyrrolidine-3-carbonitrile] |
| 200 to 500 |  | 500 to 2000 | > 2000 |  | > 2000 |  | CN1CCN(C2CCN(c3cccc4cnc(NC5CCN(S(C)(=O)=O)CC5)nc34)C2)CC1 (stereo not shown) [Example 29, 8-(3-(4-methylpiperazin-1-yl)pyrrolidin-1-yl)-N-(1-(methylsulfonyl)piperidin-4-yl)quinazolin-2-amine] |

Second part, the compound before the results:

| Compound | IC50 [1] [nM] | IC50 [2] [nM] | IC50 [3] [nM] | IC50 [4] [nM] | IC50 [5] [nM] | IC50 [6] [nM] | IC50 ([1]; given as number) [nM] |
| --- | --- | --- | --- | --- | --- | --- | --- |
| CS(=O)(=O)N1CCC(Nc2ncc3cccc(C4CCCC4)c3n2)CC1 [Example 1, 8-cyclopentyl-N-(1-(methylsulfonyl)piperidin-4-yl)quinazolin-2-amine] | < 200 | 200 to 500 | < 200 | < 200 | 500 to 2000 | < 200 |  |
| CS(=O)(=O)N1CCC(Nc2ncc3cccc(N4CCC5(C4)CC(F)(F)C5)c3n2)CC1 [Example 3, 8-(2,2-difluoro-6-azaspiro[3.4]octan-6-yl)-N-(1-(methylsulfonyl)piperidin-4-yl)quinazolin-2-amine] | < 200 | > 2000 | < 200 | < 200 | > 2000 | 500 to 2000 |  |
| CS(=O)(=O)N1CCC(Nc2ncc3cccc(N4CCC4CO)c3n2)CC1 (stereo not shown) [Example 10, (1-(2-((1-(methylsulfonyl)piperidin-4-yl)amino)quinazolin-8-yl)azetidin-2-yl)methanol] | < 200 | > 2000 | < 200 | < 200 | > 2000 | 200 to 500 |  |
| CS(=O)(=O)N1CCC(Nc2ncc3cccc(N4CC5(CCS5(=O)=O)C4)c3n2)CC1 [Example 19, 6-(2-((1-(methylsulfonyl)piperidin-4-yl)amino)quinazolin-8-yl)-1-thia-6-azaspiro[3.3]heptane 1,1-dioxide] | < 200 | 500 to 2000 | < 200 | < 200 | 500 to 2000 | 200 to 500 |  |
| CS(=O)(=O)N1CCC(Nc2ncc3cccc(N4CCC5(CCOCC5)C4)c3n2)CC1 [Example 26, N-(1-(methylsulfonyl)piperidin-4-yl)-8-(8-oxa-2-azaspiro[4.5]decan-2-yl)quinazolin-2-amine] | < 200 | > 2000 | < 200 | < 200 | > 2000 | 500 to 2000 |  |
| CS(=O)(=O)N1CCC(Nc2ncc3cccc(N4CC5CC(C4)O5)c3n2)CC1 [Example 30, 8-(6-oxa-3-azabicyclo[3.1.1]heptan-3-yl)-N-(1-(methylsulfonyl)piperidin-4-yl)quinazolin-2-amine] | < 200 |  | < 200 | 200 to 500 |  | 500 to 2000 |  |
| CS(=O)(=O)N1CCC(Nc2ncc3cccc(N4CC5(CCNC5)C4)c3n2)CC1 [Example 31, N-(1-(methylsulfonyl)piperidin-4-yl)-8-(2,6-diazaspiro[3.4]octan-2-yl)quinazolin-2-amine] | < 200 | 500 to 2000 | < 200 | 200 to 500 | 500 to 2000 | 200 to 500 |  |
| CC(=O)N1CCC2(CCN(c3cccc4cnc(Nc5ccc(N6CCN(C)CC6)cc5)nc34)C2)C1 (stereo not shown) [Example 33, 1-(7-(2-((4-(4-methylpiperazin-1-yl)phenyl)amino)quinazolin-8-yl)-2,7-diazaspiro[4.4]nonan-2-yl)ethan-1-one] |  | > 2000 | < 200 | < 200 | > 2000 | > 2000 | 5170 |
| CS(=O)(=O)N1CCC(Nc2ncc3cccc(N4CCC5(CCC(F)(F)C5)C4)c3n2)CC1 (stereo not shown) [Example 34, 8-(7,7-difluoro-2-azaspiro[4.4]nonan-2-yl)-N-(1-(methylsulfonyl)piperidin-4-yl)quinazolin-2-amine] | < 200 |  | < 200 | 200 to 500 |  | 500 to 2000 |  |
| CCN1CC2(C1)CN(c1ccc(Nc3ncc4cccc(N5CC6(CCS6(=O)=O)C5)c4n3)nc1)C2 [Example 44, 6-(2-((5-(6-ethyl-2,6-diazaspiro[3.3]heptan-2-yl)pyridin-2-yl)amino)quinazolin-8-yl)-1-thia-6-azaspiro[3.3]heptane 1,1-dioxide] | > 2000 |  | < 200 | 200 to 500 | > 2000 | > 2000 |  |
| CCN1CC2(C1)CN(c1ccc(Nc3ncc4cccc(N5CC6(C5)CC(F)(F)C6)c4n3)nc1)C2 [Example 49, 8-(6,6-difluoro-2-azaspiro[3.3]heptan-2-yl)-N-(5-(6-ethyl-2,6-diazaspiro[3.3]heptan-2-yl)pyridin-2-yl)quinazolin-2-amine] | > 2000 |  | < 200 | 200 to 500 |  | > 2000 |  |
| N-(1-(methyl sulfonyl) piperidin-4-yl)-8-(2,6-diazaspiro[3.4]octan-2-yl) quinazolin-2-amine [Example 32] | < 200 |  | 200 to 500 | 500 to 2000 |  | > 2000 |  |
